Holding throughout (format): biochemical
In one assay the target is T1, recombinant human VAP-1 (Homo sapiens, UniProt Q16853).
T1 construct: purchased R&D systems
T1 sequence (Q16853 1-763): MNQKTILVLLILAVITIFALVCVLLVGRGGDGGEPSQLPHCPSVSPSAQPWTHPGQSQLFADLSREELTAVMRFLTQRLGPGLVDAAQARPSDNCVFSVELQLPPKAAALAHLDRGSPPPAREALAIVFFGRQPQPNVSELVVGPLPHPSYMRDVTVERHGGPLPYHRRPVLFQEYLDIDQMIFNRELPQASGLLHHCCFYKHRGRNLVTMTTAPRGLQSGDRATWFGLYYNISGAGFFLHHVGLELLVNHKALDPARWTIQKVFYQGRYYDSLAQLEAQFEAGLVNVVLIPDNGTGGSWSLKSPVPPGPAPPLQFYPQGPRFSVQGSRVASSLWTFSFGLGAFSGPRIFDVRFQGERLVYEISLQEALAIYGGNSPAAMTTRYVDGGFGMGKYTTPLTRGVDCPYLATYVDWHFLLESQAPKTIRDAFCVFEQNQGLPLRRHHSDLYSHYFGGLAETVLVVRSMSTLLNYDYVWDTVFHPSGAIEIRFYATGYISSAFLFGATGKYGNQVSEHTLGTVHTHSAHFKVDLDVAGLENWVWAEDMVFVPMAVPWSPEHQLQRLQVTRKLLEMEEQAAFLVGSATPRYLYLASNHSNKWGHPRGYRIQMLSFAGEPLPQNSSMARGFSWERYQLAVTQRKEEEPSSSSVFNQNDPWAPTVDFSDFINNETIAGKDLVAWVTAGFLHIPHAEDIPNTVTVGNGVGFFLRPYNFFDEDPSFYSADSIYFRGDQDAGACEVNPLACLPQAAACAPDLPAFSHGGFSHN
The assay can be described thus: Amplex Red HRP-coupled amine oxidase activity evaluation, recombinant human VAP-1. As to conditions: substrate 1 mM benzylamine; 30 min preincubation at 37° C.; read-out: Inhibitory Activity (IC50, nM) human VAP-1. The method in brief:
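Inhibition is scored as the % drop in resorufin signal rate relative to uninhibited DMSO control and fitted to a 4-parameter logistic curve for IC50. VAP-1 and compound are preincubated 30 min at 37° C before benzylamine substrate (1 mM in the added mix) is introduced.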

In assay [1] the target is T2, recombinant human MAO-A (monoamine oxidase-A) (Homo sapiens, UniProt P21397).
T2 construct: purchased Sigma-Aldrich
T2 sequence (P21397 1-527): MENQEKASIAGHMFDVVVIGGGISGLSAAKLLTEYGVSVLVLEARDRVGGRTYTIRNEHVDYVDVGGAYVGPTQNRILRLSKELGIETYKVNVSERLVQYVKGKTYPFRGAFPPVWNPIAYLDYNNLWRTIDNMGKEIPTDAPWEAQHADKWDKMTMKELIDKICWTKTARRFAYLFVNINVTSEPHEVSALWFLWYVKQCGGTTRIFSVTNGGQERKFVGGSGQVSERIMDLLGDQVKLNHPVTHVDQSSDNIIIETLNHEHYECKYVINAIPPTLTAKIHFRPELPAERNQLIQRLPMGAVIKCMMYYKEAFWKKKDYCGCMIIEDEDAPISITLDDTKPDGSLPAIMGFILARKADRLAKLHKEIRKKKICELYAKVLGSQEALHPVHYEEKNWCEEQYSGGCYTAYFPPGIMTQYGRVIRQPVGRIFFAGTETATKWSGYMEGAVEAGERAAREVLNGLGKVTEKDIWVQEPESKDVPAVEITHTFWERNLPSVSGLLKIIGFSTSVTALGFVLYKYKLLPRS
The assay can be described thus: Amplex Red HRP-coupled amine oxidase activity evaluation, recombinant human MAO-A. As to conditions: substrate 0.5 mM tyramine; read-out: Inhibitory Activity (IC50, nM) MAO-A.

The target in assay [2] is T3, recombinant human MAO-B (monoamine oxidase-B) (Homo sapiens, UniProt P27338).
T3 construct: purchased Sigma-Aldrich
T3 sequence (P27338 1-520): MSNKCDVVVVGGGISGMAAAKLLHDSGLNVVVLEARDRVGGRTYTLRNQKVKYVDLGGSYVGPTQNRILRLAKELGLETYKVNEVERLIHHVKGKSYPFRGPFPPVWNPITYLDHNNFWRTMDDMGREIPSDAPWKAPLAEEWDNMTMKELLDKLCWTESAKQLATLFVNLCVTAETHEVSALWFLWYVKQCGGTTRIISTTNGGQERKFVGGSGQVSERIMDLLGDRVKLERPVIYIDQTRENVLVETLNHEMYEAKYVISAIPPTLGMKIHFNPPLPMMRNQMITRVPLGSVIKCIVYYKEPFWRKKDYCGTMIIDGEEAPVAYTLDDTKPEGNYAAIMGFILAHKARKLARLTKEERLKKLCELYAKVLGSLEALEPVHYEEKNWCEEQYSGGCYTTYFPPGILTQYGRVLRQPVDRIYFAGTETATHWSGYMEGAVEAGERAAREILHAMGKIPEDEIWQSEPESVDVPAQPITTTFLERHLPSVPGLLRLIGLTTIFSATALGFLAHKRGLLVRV
The assay can be described thus: Amplex Red HRP-coupled amine oxidase activity evaluation, recombinant human MAO-B. As to conditions: substrate 1 mM benzylamine; read-out: Inhibitory Activity (IC50, nM) MAO-B.

For assay [3], the target named is T4, recombinant human DAO (diamine oxidase) (Homo sapiens, UniProt P19801).
T4 construct: purchased R&D systems
T4 sequence (P19801 20-751): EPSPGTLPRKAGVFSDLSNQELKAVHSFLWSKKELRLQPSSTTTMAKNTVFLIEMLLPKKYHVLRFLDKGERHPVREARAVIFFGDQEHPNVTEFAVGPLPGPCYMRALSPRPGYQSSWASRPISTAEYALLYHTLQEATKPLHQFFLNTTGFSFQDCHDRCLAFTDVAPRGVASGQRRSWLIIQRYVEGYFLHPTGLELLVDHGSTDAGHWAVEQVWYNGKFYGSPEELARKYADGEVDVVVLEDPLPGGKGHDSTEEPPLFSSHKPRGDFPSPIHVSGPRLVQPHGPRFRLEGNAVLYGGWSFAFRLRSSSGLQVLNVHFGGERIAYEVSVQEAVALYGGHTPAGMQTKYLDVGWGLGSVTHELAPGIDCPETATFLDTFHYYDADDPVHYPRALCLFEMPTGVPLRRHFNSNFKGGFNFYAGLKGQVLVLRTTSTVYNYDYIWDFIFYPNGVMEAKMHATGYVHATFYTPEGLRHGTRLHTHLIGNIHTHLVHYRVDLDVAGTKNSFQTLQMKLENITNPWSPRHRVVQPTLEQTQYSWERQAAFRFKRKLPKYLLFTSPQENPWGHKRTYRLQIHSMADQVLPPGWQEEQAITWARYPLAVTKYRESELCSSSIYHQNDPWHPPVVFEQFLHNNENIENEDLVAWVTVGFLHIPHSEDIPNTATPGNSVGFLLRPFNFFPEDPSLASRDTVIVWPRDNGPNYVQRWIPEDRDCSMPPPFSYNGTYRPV
The assay can be described thus: Amplex Red HRP-coupled amine oxidase activity evaluation, recombinant human DAO. As to conditions: substrate 1 mM putrescine; read-out: Inhibitory Activity (IC50, nM) DAO.

Counter-ions that a name gives are not always drawn.

On to `CCn1cc(-c2cccc(Cn3nnn(CC(CN)=C(F)F)c3=O)c2)cn1` [Example 32, 1-[2-(aminomethyl)-3,3-difluoro-allyl]-4-[[3-(1-ethylpyrazol-4-yl)phenyl]methyl]tetrazol-5-one trifluoroacetate], for which the IC50 (commonly the concentration needed to halve the response being measured) was 0.4 nM at recombinant human VAP-1, greater than 100000 nM in assay [1], 2320 nM in assay [2] and 811 nM in assay [3].

Take `CN1C(=O)CCc2cc(-c3cccc(Cn4nnn(CC(CN)=C(F)F)c4=O)c3)ccc21` [Example 33, 6-[3-[[4-[2-(aminomethyl)-3,3-difluoro-allyl]-5-oxo-tetrazol-1-yl]methyl]phenyl]-1-methyl-3,4-dihydroquinolin-2-one trifluoroacetate]: the IC50 is 0.3 nM on recombinant human VAP-1, 81400 nM in assay [1], 3990 nM in assay [2] and 122 nM in assay [3].

In the case of `CCn1cc(-c2cccc(Cn3nnn(CC(CN)=C(F)F)c3=O)c2)ccc1=O` [Example 34, 5-[3-[[4-[2-(aminomethyl)-3,3-difluoro-allyl]-5-oxo-tetrazol-1-yl]methyl]phenyl]-1-ethyl-pyridin-2-one trifluoroacetate], the IC50 at recombinant human VAP-1 was 0.6 nM; in assay [1], greater than 100000 nM; in assay [2], 53900 nM; in assay [3], 12500 nM.

`CS(=O)(=O)c1ccc(-c2csc(-n3nnn(CC(CN)=C(F)F)c3=O)c2)cc1` [Example 35, 1-[2-(aminomethyl)-3,3-difluoro-allyl]-4-[4-(4-methylsulfonylphenyl)-2-thienyl]tetrazol-5-one trifluoroacetate]: the IC50 was 0.4 nM on recombinant human VAP-1, greater than 100000 nM in assay [1], 1430 nM in assay [2] and 32200 nM in assay [3].

Take `NCC(Cn1nnn(-c2cc(-c3ccc(N4CCNCC4)cc3)cs2)c1=O)=C(F)F` [Example 36, 1-[2-(aminomethyl)-3,3-difluoro-allyl]-4-[4-(4-piperazin-1-ylphenyl)-2-thienyl]tetrazol-5-one di-trifluoroacetate]: the IC50 was 1.1 nM at recombinant human VAP-1, greater than 100000 nM in assay [1], greater than 100000 nM in assay [2] and 8470 nM in assay [3].

For the compound `CCn1cc(-c2csc(-n3nnn(CC(CN)=C(F)F)c3=O)c2)ccc1=O` [Example 37, 5-[5-[4-[2-(aminomethyl)-3,3-difluoro-allyl]-5-oxo-tetrazol-1-yl]-3-thienyl]-1-ethyl-pyridin-2-one trifluoroacetate], the IC50 on recombinant human VAP-1 was 0.3 nM; in assay [1] it was greater than 100000 nM; in assay [2] it was 3450 nM; in assay [3] it was 25300 nM.

With `CN(C)c1ccc(-c2csc(-n3nnn(CC(CN)=C(F)F)c3=O)c2)cn1` [Example 38, 1-[2-(aminomethyl)-3,3-difluoro-allyl]-4-[4-[6-(dimethylamino)-3-pyridyl]-2-thienyl]tetrazol-5-one trifluoroacetate], the IC50 was 0.8 nM at recombinant human VAP-1, greater than 100000 nM in assay [1], 768 nM in assay [2] and greater than 100000 nM in assay [3].

`NCC(Cn1nnn(-c2cc(-c3ccc4c(c3)OCO4)cs2)c1=O)=C(F)F` [Example 39, 1-[2-(aminomethyl)-3,3-difluoro-allyl]-4-[4-(1,3-benzodioxol-5-yl)-2-thienyl]tetrazol-5-one trifluoroacetate]: the IC50 was found to be 0.6 nM on recombinant human VAP-1, 26200 nM in assay [1], 21 nM in assay [2] and 88 nM in assay [3].

Turning to `Cc1cc(-c2csc(-n3nnn(CC(CN)=C(F)F)c3=O)c2)cc2c1NC(=O)CC2` [Example 40, 6-[5-[4-[2-(aminomethyl)-3,3-difluoro-allyl]-5-oxo-tetrazol-1-yl]-3-thienyl]-8-methyl-3,4-dihydro-1H-quinolin-2-one trifluoroacetate], the IC50 at recombinant human VAP-1 came out at 0.4 nM; in assay [1] it was 56100 nM; in assay [2], 123 nM; in assay [3], 1.6 nM.

For the compound `CN1C(=O)CCc2cc(-c3csc(-n4nnn(CC(CN)=C(F)F)c4=O)c3)ccc21` [Example 41, 6-[5-[4-[2-(aminomethyl)-3,3-difluoro-allyl]-5-oxo-tetrazol-1-yl]-3-thienyl]-1-methyl-3,4-dihydroquinolin-2-one trifluoroacetate], the IC50 on recombinant human VAP-1 is 0.4 nM; in assay [1], greater than 100000 nM; in assay [2], 34 nM; in assay [3] it was 52 nM.

For the compound `CCn1cc(-c2csc(-n3nnn(CC(CN)=C(F)F)c3=O)c2)cn1` [Example 42, 1-[2-(aminomethyl)-3,3-difluoro-allyl]-4-[4-(1-ethylpyrazol-4-yl)-2-thienyl]tetrazol-5-one trifluoroacetate], the IC50 was 0.4 nM on recombinant human VAP-1, greater than 100000 nM in assay [1], 228 nM in assay [2] and 0.6 nM in assay [3].

In the case of `CS(=O)(=O)c1ccc(-c2ccc(Cn3nnn(CC(CN)=C(F)F)c3=O)s2)cc1` [Example 43, 1-[2-(aminomethyl)-3,3-difluoro-allyl]-4-[[5-(4-methylsulfonylphenyl)-2-thienyl]methyl]tetrazol-5-one trifluoroacetate], the IC50 is 0.4 nM on recombinant human VAP-1, 72800 nM in assay [1], 19700 nM in assay [2] and 911 nM in assay [3].

Turning to `CCn1cc(-c2ccc(Cn3nnn(CC(CN)=C(F)F)c3=O)s2)ccc1=O` [Example 44, 5-[5-[[4-[2-(aminomethyl)-3,3-difluoro-allyl]-5-oxo-tetrazol-1-yl]methyl]-2-thienyl]-1-ethyl-pyridin-2-one trifluoroacatate], the IC50 is 0.3 nM on recombinant human VAP-1, greater than 100000 nM in assay [1], 10000 nM in assay [2] and 762 nM in assay [3].

Values taken from US12110279B2, “Triazolones, tetrazolones, and imidazolones, or their salts, and pharmaceutical compositions comprising the same” (Yuhan Corporation, priority 2021, dated 2024).
